{"source": "patent US20210054106A1", "about": "“OMNIPHILIC NANO-VESICLES BASED ON MODIFIED POLYSACCHARIDES FOR DELIVERY OF ACTIVE AGENTS” (THE STATE OF ISRAEL, MINISTRY OF AGRICULTURE & RURAL …, priority 2018, published 2021)", "assay": "Franz diffusion cell model, RB permeation", "type": "in vitro ADME", "conditions": "sunflower oil donor, PBS pH 7.4 receptor, 32 °C, up to 16 h", "data": [{"compound": "CCN(CC)c1ccc2c(-c3ccccc3C(=O)O)c3ccc(=[N+](CC)CC)cc-3oc2c1.[Cl-]", "note": "[RB, Rhodamine B]", "values": [{"measurement": "RB permeation across lipophilic membrane into aqueous phase", "result": "scarcely permeates"}]}]}
